According to PubChem BioAssay (NCI):
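Grown in 96-well plates, cells were treated for 48 hours with each compound at five concentrations. Insufficient inhibition: endpoint recorded as highest concentration tested. TGI: concentration producing complete growth inhibition.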

Experiments:
Experiment in all cases: NCI tumour cell line growth inhibition, 48 h
[1] = tested on: UACC-257 melanoma
[2] = tested on: NCI-H460 lung
[3] = tested on: NCI-H23 lung
[4] = tested on: SNB-75 CNS
[5] = tested on: RXF-631 renal
[6] = tested on: IGROV1 ovarian
[7] = tested on: SR leukemia
[8] = tested on: HOP-18 NSCLC
[9] = tested on: HCT-15 colon
[10] = tested on: KM20L2 colon
[11] = tested on: SW-620 colon
[12] = tested on: HOP-62 NSCLC
[13] = tested on: SK-OV-3 ovarian
[14] = tested on: OVCAR-4 ovarian
[15] = tested on: SNB-78 CNS
[16] = tested on: ACHN renal
[17] = tested on: NCI-H226 lung
[18] = tested on: LOX IMVI melanoma
[19] = tested on: M14 melanoma
[20] = tested on: DMS 114 small cell lung
[21] = tested on: U251 CNS
[22] = tested on: A549 NSCLC
[23] = tested on: SN12C renal
[24] = tested on: SF-268 CNS
[25] = tested on: EKVX NSCLC
[26] = tested on: OVCAR-5 ovarian
[27] = tested on: SK-MEL-5 melanoma
[28] = tested on: UO-31 renal
[29] = tested on: SF-539 CNS
[30] = tested on: CAKI-1 renal
[31] = tested on: SF-295 CNS
[32] = tested on: HCC-2998 colon
[33] = tested on: MALME-3M melanoma
[34] = tested on: SNB-19 CNS
[35] = tested on: HCT-116 colon
[36] = tested on: MOLT-4 leukemia
[37] = tested on: SK-MEL-2 melanoma
[38] = tested on: CCRF-CEM leukemia
[39] = tested on: K-562 leukemia
[40] = tested on: HT29 colon
[41] = tested on: A498 renal
[42] = tested on: NCI-H522 lung
[43] = tested on: M19-MEL melanoma
[44] = tested on: LXFL 529 NSCLC
[45] = tested on: DLD-1 colon
[46] = tested on: OVCAR-8 ovarian
[47] = tested on: HL-60(TB) leukemia
[48] = tested on: DMS 273 small cell lung
[49] = tested on: XF 498 CNS
[50] = tested on: RXF 393 renal
[51] = tested on: OVCAR-3 ovarian
[52] = tested on: UACC-62 melanoma
[53] = tested on: TK-10 renal
[54] = tested on: RPMI-8226 leukemia
[55] = tested on: SK-MEL-28 melanoma
[56] = tested on: COLO 205 colon
[57] = tested on: KM12 colon
[58] = tested on: 786-0 renal
[59] = tested on: HOP-92 NSCLC

Measured: TGI

COc1ccc(C(=O)Cc2ccc(Cl)cc2)cc1OC
> 100 µM: [1] | [2] | [3] | [5] | [6] | [7] | [8] | [9] | [10] | [11] | [12] | [13] | [14] | [15] | [16] | [17] | [18] | [19] | [20] | [21] | [22] | [23] | [24] | [25] | [26] | [27] | [28] | [29] | [30] | [31] | [32] | [33] | [34] | [35] | [36] | [37] | [38] | [39] | [40] | [41] | [42] | [43] | [44] | [45] | [46] | [47] | [48] | [49] | [50] | [51] | [52] | [53] | [54]
86.9 µM: [4]

COC(=O)CCC(NC(=S)N/N=C(\C)c1ccco1)C(=O)OC (stereo not given)
> 100 µM: [1] | [2] | [3] | [4] | [5] | [6] | [8] | [9] | [10] | [11] | [12] | [13] | [14] | [15] | [16] | [17] | [18] | [19] | [20] | [21] | [22] | [55] | [23] | [24] | [25] | [26] | [27] | [56] | [28] | [29] | [31] | [32] | [33] | [34] | [35] | [37] | [38] | [39] | [40] | [57] | [41] | [42] | [43] | [44] | [58] | [45] | [46] | [47] | [48] | [49] | [50] | [51] | [52] | [53]

Cn1cnc2[nH]c(=O)[nH]c(=S)c21
> 100 µM: [1] | [2] | [3] | [4] | [5] | [6] | [7] | [8] | [9] | [10] | [11] | [12] | [13] | [14] | [15] | [16] | [17] | [19] | [20] | [21] | [22] | [23] | [24] | [25] | [26] | [27] | [56] | [28] | [29] | [30] | [31] | [32] | [33] | [34] | [35] | [59] | [36] | [37] | [38] | [39] | [40] | [57] | [41] | [42] | [43] | [44] | [58] | [45] | [46] | [47] | [48] | [49] | [50] | [51] | [52] | [53] | [54]
